The values below come from patent US10954219B2, “1,3-benzodioxole derivative” (DAIICHI SANKYO COMPANY, LIMITED, priority 2014, dated 2021).

pIC50: −log10 of the molar value. Where a name gives a salt, the structure may show the parent alone.

Assay [1] deals with PRC2-EZH1 (WT EZH1) (Homo sapiens, UniProt Q92800). The assay can be described thus: EZH1 methyltransferase inhibitory activity evaluation.
Procedure: EZH1 Methyltransferase Inhibitory Activity Evaluation
(§1) Then, the residual radioactivity was measured using TopCount NXT HTS (PerkinElmer, Inc., model C384V01).
For assay [2], the system named is Intracellular H3K27me3 in HCT116 cells. The assay can be described thus: Intracellular H3K27me3 inhibitory activity evaluation. The class given is cell-based. The conditions noted are these: Homo sapiens, HCT-116, 72 h, 3 days, AlphaLISA, read-out: Test Example 3 H3K27me3 inhibition (HCT116) IC50.
Procedure: The HCT116 cells were purchased from American Type Culture Collection (ATCC). […] Intracellular H3K27me3 was quantified using AlphaLISA H3K27me3 Cellular Detection Kit (PerkinElmer, Inc., #AL722F). The cells thus cultured in each well were washed with 100 μL of PBS. Cell-Histone Lysis buffer diluted 6-fold with PBS was added thereto at 80 μL/well, and the plate was then incubated at room temperature for 15 minutes while shaken. Then, Cell-Histone Extraction buffer was added thereto at 40 μL/well, and the plate was incubated at room temperature for 10 minutes while shaken. […] An AlphaLISA anti-H3K27me3 Acceptor beads/Biotinylated Antibody anti-Histone H3 (C-ter) mixed solution was added thereto at 3.3 μL/well, and the plate was incubated at room temperature for 60 minutes. Then, Streptavidin (SA)-coated Donor beads were added thereto at 3.3 μL/well, and the plate was incubated at room temperature for 30 minutes with the plate shielded from light.
For assay [3], the target named is T1, PRC2-EZH2 (WT EZH2) (Homo sapiens, UniProt Q15910).
T1 construct: made in house
The assay can be described thus: EZH2 methyltransferase inhibitory activity evaluation. The class given is biochemical. Conditions: PRC2-EZH2, biotin-H3 peptide, 3H-SAM, 2 hours.
Procedure: EZH2 Methyltransferase Inhibitory Activity Evaluation
as §1

PRC2-EZH1 (WT EZH1), sequence (Q92800 whole entry): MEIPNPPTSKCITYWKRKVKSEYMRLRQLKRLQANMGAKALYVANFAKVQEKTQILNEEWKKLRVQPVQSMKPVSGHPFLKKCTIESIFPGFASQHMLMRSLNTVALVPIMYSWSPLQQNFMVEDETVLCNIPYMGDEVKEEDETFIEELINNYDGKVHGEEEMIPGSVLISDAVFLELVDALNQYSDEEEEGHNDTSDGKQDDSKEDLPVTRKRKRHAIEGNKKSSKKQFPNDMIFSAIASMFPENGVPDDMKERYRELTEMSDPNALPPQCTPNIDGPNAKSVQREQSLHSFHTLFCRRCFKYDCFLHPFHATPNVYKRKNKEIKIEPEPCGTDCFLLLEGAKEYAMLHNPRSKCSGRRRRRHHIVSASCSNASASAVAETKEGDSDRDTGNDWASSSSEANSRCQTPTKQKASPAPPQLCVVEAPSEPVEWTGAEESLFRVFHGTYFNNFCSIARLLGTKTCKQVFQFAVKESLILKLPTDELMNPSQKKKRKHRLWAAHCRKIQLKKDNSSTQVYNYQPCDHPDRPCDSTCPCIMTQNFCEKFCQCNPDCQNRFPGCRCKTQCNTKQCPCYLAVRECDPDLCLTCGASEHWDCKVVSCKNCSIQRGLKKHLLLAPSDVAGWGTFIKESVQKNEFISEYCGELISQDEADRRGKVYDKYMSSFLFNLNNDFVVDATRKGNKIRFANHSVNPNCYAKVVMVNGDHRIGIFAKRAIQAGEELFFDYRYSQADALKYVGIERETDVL
PRC2-EZH1 (WT EZH1), sequence (O75530 whole entry partner): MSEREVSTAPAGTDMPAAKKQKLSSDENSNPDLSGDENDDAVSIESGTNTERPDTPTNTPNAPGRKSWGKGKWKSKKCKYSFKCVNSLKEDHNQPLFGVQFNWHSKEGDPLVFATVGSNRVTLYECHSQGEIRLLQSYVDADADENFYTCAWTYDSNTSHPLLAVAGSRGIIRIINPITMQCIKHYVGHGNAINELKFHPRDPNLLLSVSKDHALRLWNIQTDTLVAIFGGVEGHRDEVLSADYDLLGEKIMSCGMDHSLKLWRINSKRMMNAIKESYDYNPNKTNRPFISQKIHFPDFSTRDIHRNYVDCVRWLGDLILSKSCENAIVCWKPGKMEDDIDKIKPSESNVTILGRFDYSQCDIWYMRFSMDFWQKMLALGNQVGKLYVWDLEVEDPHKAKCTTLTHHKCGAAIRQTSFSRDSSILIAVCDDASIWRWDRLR
PRC2-EZH1 (WT EZH1), sequence (Q15022 whole entry partner): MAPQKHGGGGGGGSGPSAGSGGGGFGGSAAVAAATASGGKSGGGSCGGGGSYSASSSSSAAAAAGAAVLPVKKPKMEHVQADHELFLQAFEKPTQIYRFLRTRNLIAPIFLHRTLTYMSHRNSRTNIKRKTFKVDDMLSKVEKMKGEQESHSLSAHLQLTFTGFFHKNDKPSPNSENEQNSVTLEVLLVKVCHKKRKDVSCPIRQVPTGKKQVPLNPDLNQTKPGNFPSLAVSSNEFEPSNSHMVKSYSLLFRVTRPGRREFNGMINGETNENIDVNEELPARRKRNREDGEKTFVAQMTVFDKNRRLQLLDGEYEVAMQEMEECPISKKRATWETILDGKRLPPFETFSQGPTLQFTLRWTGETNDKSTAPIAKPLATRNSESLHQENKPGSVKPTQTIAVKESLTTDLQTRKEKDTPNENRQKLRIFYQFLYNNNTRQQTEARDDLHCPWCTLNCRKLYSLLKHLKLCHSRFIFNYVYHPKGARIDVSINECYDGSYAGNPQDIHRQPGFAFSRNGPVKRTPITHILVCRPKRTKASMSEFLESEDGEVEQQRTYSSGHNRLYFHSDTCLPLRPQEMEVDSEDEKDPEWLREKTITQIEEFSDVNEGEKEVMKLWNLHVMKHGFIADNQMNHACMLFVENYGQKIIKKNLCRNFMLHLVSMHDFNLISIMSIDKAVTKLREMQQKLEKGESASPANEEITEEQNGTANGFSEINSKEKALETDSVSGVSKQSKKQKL
PRC2-EZH1 (WT EZH1), sequence (Q09028 whole entry partner): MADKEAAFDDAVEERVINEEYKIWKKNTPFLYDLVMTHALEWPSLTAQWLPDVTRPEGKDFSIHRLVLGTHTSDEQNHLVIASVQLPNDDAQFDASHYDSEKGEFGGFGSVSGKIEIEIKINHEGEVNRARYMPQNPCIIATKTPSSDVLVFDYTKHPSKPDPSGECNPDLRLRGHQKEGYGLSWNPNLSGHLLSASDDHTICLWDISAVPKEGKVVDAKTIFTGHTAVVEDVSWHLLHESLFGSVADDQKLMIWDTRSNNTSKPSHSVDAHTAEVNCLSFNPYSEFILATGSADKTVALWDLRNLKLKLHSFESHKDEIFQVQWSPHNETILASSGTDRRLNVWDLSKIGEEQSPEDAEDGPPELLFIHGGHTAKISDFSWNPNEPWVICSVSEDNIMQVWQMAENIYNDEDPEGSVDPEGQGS
PRC2-EZH1 (WT EZH1), sequence (Q6ZN18 whole entry partner): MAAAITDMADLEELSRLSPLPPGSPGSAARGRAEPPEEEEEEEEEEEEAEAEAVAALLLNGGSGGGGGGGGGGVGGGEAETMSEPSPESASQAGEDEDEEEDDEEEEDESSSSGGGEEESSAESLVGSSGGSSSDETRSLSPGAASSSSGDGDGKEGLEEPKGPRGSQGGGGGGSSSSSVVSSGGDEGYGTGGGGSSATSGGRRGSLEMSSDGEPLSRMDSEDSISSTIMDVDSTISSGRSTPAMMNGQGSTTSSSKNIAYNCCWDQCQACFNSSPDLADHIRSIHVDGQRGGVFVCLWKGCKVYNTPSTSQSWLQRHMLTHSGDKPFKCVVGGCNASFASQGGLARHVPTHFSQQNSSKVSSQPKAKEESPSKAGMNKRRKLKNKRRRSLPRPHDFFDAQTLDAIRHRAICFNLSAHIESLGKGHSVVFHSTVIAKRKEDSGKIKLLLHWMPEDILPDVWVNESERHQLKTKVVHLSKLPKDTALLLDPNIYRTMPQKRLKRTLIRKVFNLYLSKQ
T1 sequence (Q15910 whole entry): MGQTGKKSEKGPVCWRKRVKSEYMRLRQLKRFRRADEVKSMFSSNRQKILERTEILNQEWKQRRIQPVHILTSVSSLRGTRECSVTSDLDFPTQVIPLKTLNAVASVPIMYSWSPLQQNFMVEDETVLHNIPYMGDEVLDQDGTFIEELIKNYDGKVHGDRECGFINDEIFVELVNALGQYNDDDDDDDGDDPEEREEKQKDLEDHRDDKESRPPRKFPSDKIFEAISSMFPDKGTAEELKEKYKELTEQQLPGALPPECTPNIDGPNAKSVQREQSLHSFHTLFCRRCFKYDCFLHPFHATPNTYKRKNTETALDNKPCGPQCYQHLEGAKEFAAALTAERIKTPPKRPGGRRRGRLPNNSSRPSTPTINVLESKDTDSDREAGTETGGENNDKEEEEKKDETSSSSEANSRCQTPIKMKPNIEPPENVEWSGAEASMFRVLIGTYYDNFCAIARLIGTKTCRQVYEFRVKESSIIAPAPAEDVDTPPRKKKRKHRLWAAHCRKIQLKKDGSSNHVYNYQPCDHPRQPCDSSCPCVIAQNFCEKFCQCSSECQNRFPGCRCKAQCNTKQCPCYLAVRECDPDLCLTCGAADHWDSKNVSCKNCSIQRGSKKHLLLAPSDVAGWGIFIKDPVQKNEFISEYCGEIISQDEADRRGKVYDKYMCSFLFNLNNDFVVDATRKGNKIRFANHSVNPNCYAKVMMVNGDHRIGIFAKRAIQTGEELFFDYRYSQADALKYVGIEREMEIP
T1 sequence (O75530 whole entry partner): as the sequence (O75530 whole entry partner) above
T1 sequence (Q15022 whole entry partner): as the sequence (Q15022 whole entry partner) above

Broadly, the pIC50 is the negative decadic logarithm of the IC50, by convention in mol/L. `Cc1cc(C)c(CNC(=O)c2cc(F)c3c(c2C)OC(C)([C@H]2CC[C@H](N(C)C)CC2)O3)c(=O)[nH]1` (relative stereo) [Example 46, 2-[trans-4-(Dimethylamino)cyclohexyl]-N-[(4,6-dimethyl-2-oxo-1,2-dihydropyridin-3-yl)methyl]-7-fluoro-2,4-dimethyl-1,3-benzodioxole-5-carboxamide]: the results for the pIC50 in assay [1], in assay [2] and in assay [3] were 7.14, 8.47 and 8.17, respectively.
On to `Cc1cc(C)c(CNC(=O)c2cc(C)c3c(c2C)OC(C)([C@H]2CC[C@H](N(C)C)CC2)O3)c(=O)[nH]1` (relative stereo) [Example 47, 2-[trans-4-(Dimethylamino)cyclohexyl]-N-[(4,6-dimethyl-2-oxo-1,2-dihydropyridin-3-yl)methyl]-2,4,7-trimethyl-1,3-benzodioxole-5-carboxamide], for which the negative-log IC50 (pIC50) was 7.66 in assay [1], 8.85 in assay [2] and 8.00 in assay [3].
For `COc1cc(C(=O)NCc2c(C)cc(C)[nH]c2=O)c(C)c2c1OC(C)([C@H]1CC[C@H](N(C)C)CC1)O2` (relative stereo) [Example 50, 2-[trans-4-(Dimethylamino)cyclohexyl]-N-[(4,6-dimethyl-2-oxo-1,2-dihydropyridin-3-yl)methyl]-7-methoxy-2,4-dimethyl-1,3-benzodioxole-5-carboxamide], the figures for the pIC50 in assay [1], in assay [2] and in assay [3] were 7.28, 8.15 and 7.70, respectively.
Take `Cc1cc(C)c(CNC(=O)c2cc(Cl)c3c(c2Cl)OC(C)([C@H]2CC[C@H](N(C)C)CC2)O3)c(=O)[nH]1` (relative stereo) [Example 53, 4,7-Dichloro-2-[trans-4-(dimethylamino)cyclohexyl]-N-[(4,6-dimethyl-2-oxo-1,2-dihydropyridin-3-yl)methyl]-2-methyl-1,3-benzodioxole-5-carboxamide]: the figures for the pIC50 in assay [1], in assay [2] and in assay [3] were 7.59, 9.20 and 7.89, respectively.
For `Cc1cc(C)c(CNC(=O)c2cc(C3=CCCC3)c3c(c2C)OC(C)([C@H]2CC[C@H](N(C)C)CC2)O3)c(=O)[nH]1` (relative stereo) [Example 58, 7-(Cyclopenten-1-yl)-2-[trans-4-(dimethylamino)cyclohexyl]-N-[(4,6-dimethyl-2-oxo-1,2-dihydropyridin-3-yl)methyl]-2,4-dimethyl-1,3-benzodioxole-5-carboxamide] the same measures were 8.36, 8.54 and 8.00.
For `Cc1cc(C)c(CNC(=O)c2cc(-c3ccccc3)c3c(c2C)OC(C)([C@H]2CC[C@H](N(C)C)CC2)O3)c(=O)[nH]1` (relative stereo) [Example 59, 2-[trans-4-(Dimethylamino)cyclohexyl]-N-[(4,6-dimethyl-2-oxo-1,2-dihydropyridin-3-yl)methyl]-2,4-dimethyl-7-phenyl-1,3-benzodioxole-5-carboxamide], the pIC50 in assay [1] was 8.24; in assay [2], 8.74; in assay [3], 8.06.
For `Cc1cc(C)c(CNC(=O)c2cc(C3=CCCCC3)c3c(c2C)OC(C)([C@H]2CC[C@H](N(C)C)CC2)O3)c(=O)[nH]1` (relative stereo) [Example 60, 7-(Cyclohexen-1-yl)-2-[trans-4-(dimethylamino)cyclohexyl]-N-[(4,6-dimethyl-2-oxo-1,2-dihydropyridin-3-yl)methyl]-2,4-dimethyl-1,3-benzodioxole-5-carboxamide] the same measures were 8.14, 8.43 and 7.85.
`CCN1CCN(c2ccc(-c3cc(C(=O)NCc4c(C)cc(C)[nH]c4=O)c(C)c4c3OC(C)([C@H]3CC[C@H](N(C)C)CC3)O4)cn2)CC1` (relative stereo) [Example 61, 2-[trans-4-(Dimethylamino)cyclohexyl]-N-[(4,6-dimethyl-2-oxo-1,2-dihydropyridin-3-yl)methyl]-7-[6-(4-ethylpiperazin-1-yl)-3-pyridyl]-2,4-dimethyl-1,3-benzodioxole-5-carboxamide]: the pIC50 in assay [1] was 8.10; in assay [2], 8.00; in assay [3], 7.68.
As for `Cc1cc(C)c(CNC(=O)c2cc(C3=CCOCC3)c3c(c2C)OC(C)([C@H]2CC[C@H](N(C)C)CC2)O3)c(=O)[nH]1` (relative stereo) [Example 62, 7-(3,6-Dihydro-2H-pyran-4-yl)-2-[trans-4-(dimethylamino)cyclohexyl]-N-[(4,6-dimethyl-2-oxo-1,2-dihydropyridin-3-yl)methyl]-2,4-dimethyl-1,3-benzodioxole-5-carboxamide], the pIC50 in assay [1] is 7.96; in assay [2], 8.26; in assay [3] it was 8.18.
For the compound `Cc1cc(C)c(CNC(=O)c2cc(-c3ccc(CN4CCOCC4)nc3)c3c(c2C)OC(C)([C@H]2CC[C@H](N(C)C)CC2)O3)c(=O)[nH]1` (relative stereo) [Example 63, 2-[trans-4-(Dimethylamino)cyclohexyl]-N-[(4,6-dimethyl-2-oxo-1,2-dihydropyridin-3-yl)methyl]-2,4-dimethyl-7-[6-(morpholinomethyl)-3-pyridyl]-1,3-benzodioxole-5-carboxamide], the pIC50 in assay [1] is 7.77; in assay [2], 7.89; in assay [3] it was 7.66.
Regarding `Cc1cc(C)c(CNC(=O)c2cc(-c3cccnc3)c3c(c2C)OC(C)([C@H]2CC[C@H](N(C)C)CC2)O3)c(=O)[nH]1` (relative stereo) [Example 64, 2-[trans-4-(Dimethylamino)cyclohexyl]-N-[(4,6-dimethyl-2-oxo-1,2-dihydropyridin-3-yl)methyl]-2,4-dimethyl-7-(3-pyridyl)-1,3-benzodioxole-5-carboxamide], the pIC50 in assay [1] is 7.66; in assay [2] it was 8.17; in assay [3] it was 7.85.
As for `Cc1cc(C)c(CNC(=O)c2cc(-c3cnn(C)c3)c3c(c2C)OC(C)([C@H]2CC[C@H](N(C)C)CC2)O3)c(=O)[nH]1` (relative stereo) [Example 65, 2-[trans-4-(Dimethylamino)cyclohexyl]-N-[(4,6-dimethyl-2-oxo-1,2-dihydropyridin-3-yl)methyl]-2,4-dimethyl-7-(1-methylpyrazol-4-yl)-1,3-benzodioxole-5-carboxamide hydrochloride], the pIC50 in assay [1] was 7.64; in assay [2], 7.89; in assay [3], 7.74.
The corresponding values for `C=Cc1cc(C(=O)NCc2c(C)cc(C)[nH]c2=O)c(C)c2c1OC(C)([C@H]1CC[C@H](N(C)C)CC1)O2` (relative stereo) [Example 66, 2-[trans-4-(Dimethylamino)cyclohexyl]-N-[(4,6-dimethyl-2-oxo-1,2-dihydropyridin-3-yl)methyl]-2,4-dimethyl-7-vinyl-1,3-benzodioxole-5-carboxamide] are 7.57, 8.77 and 7.66.
`C#Cc1cc(C(=O)NCc2c(C)cc(C)[nH]c2=O)c(C)c2c1OC(C)([C@H]1CC[C@H](N(C)C)CC1)O2` (relative stereo) [Example 67, 2-[trans-4-(Dimethylamino)cyclohexyl]-N-[(4,6-dimethyl-2-oxo-1,2-dihydropyridin-3-yl)methyl]-7-ethynyl-2,4-dimethyl-1,3-benzodioxole-5-carboxamide]: the negative-log IC50 (pIC50) is 7.77 in assay [1], 9.00 in assay [2] and 7.72 in assay [3].
Take `Cc1cc(C)c(CNC(=O)c2cc(C3CC3)c3c(c2C)OC(C)([C@H]2CC[C@H](N(C)C)CC2)O3)c(=O)[nH]1` (relative stereo) [Example 68, 7-Cyclopropyl-2-[trans-4-(dimethylamino)cyclohexyl]-N-[(4,6-dimethyl-2-oxo-1,2-dihydropyridin-3-yl)methyl]-2,4-dimethyl-1,3-benzodioxole-5-carboxamide]: the pIC50 is 7.54 in assay [1], 8.80 in assay [2] and 7.74 in assay [3].
For `Cc1cc(C)c(CNC(=O)c2cc(-c3ccnc(N4CCN(C)CC4)c3)c3c(c2C)OC(C)([C@H]2CC[C@H](N(C)C)CC2)O3)c(=O)[nH]1` (relative stereo) [Example 69, 2-[trans-4-(Dimethylamino)cyclohexyl]-N-[(4,6-dimethyl-2-oxo-1,2-dihydropyridin-3-yl)methyl]-2,4-dimethyl-7-[2-(4-methylpiperazin-1-yl)-4-pyridyl]-1,3-benzodioxole-5-carboxamide], the pIC50 is 7.49 in assay [1], 7.54 in assay [2] and 7.62 in assay [3].
With `Cc1cc(C)c(CNC(=O)c2cc(-c3cncs3)c3c(c2C)OC(C)([C@H]2CC[C@H](N(C)C)CC2)O3)c(=O)[nH]1` (relative stereo) [Example 70, 2-[trans-4-(Dimethylamino)cyclohexyl]-N-[(4,6-dimethyl-2-oxo-1,2-dihydropyridin-3-yl)methyl]-2,4-dimethyl-7-thiazol-5-yl-1,3-benzodioxole-5-carboxamide hydrochloride], the figures for the pIC50 in assay [1], in assay [2] and in assay [3] were 7.42, 8.37 and 7.59, respectively.
Turning to `Cc1cc(C)c(CNC(=O)c2cc(C3=CCN(C)CC3)c3c(c2C)OC(C)([C@H]2CC[C@H](N(C)C)CC2)O3)c(=O)[nH]1` (relative stereo) [Example 71, 2-[trans-4-(Dimethylamino)cyclohexyl]-N-[(4,6-dimethyl-2-oxo-1,2-dihydropyridin-3-yl)methyl]-2,4-dimethyl-7-(1-methyl-3,6-dihydro-2H-pyridin-4-yl)-1,3-benzodioxole-5-carboxamide], the pIC50 in assay [1] was 7.37; in assay [2] it was 7.00; in assay [3] it was 7.72.
